Assay results from PMC11844072, “Novel 5,6-dichlorobenzimidazole derivatives as dual BRAFWT and BRAFV600E inhibitors: design, synthesis, anti-cancer activity and molecular dynamics simulations” (BMC Chemistry, 2025).

Legend:
BRAFWT = target: T1, BRAFWT (Homo sapiens, UniProt P15056); assay: BRAFWT kinase assay kit (Kinase-Glo Max luminescence); type: biochemical; conditions: BRAFwt, 10 µM; mean of two independent experiments ± SD
T1 construct: purchased BPS Biosciences 78316
Experimental: The inhibitory activities of 10a–p on BRAFWT was examined utilizing BRAFWT assay kit (BPS Biosciences—San Diego—CA—US) (For further information see Additional file A).
4. Biochemical kinase assays
The inhibitory activity against different kinases was determined using kinase kits (BRAF WT […]
Glo Max luminescence kinase assay kit (Promega).
The assay was carried out according to the protocol provided by the manufacturer. A stock solution of the synthesized derivatives in 100% DMSO was prepared. Subsequently, the compounds were diluted to 10% DMSO.
A master mixture was prepared according to the number of wells. For BRAF assay each well include 6 μl of 5x Kinase Buffer 1 + 1 μl of ATP (500 μM) + 10 μl of 5X Raf substrate + 8 μl of distilled water. 1x Kinase buffer 1 was prepared by mixing 600 μl of 5x Kinase Buffer 1 with 2400 μl water to give 3 mL. Kinases were thawed on ice and were diluted with 1x Kinase Buffer 1.
To start the biochemical reaction, 25 µL of the master mixture was added to each well in 96 well plate. 5 µL of 10% DMSO was added to positive control wells and blank wells. 5 µL of diluted inhibitor was added to each well labelled with the test inhibitor so that the final concentration of DMSO is 1% in all reactions. Then 20 µL of (2.5 ng/μl) in case of BRAF WT and (1 ng / μl) in case of VEGFR-2 and FGFR-1 in 1x kinase buffer was added to positive control wells and wells labelled with the inhibitor, while 20 µL 1x kinase buffer 1 was added to the blank wells.
The plate was incubated at 30 °C for 45 min. Subsequently, 50 μl of Kinase-Glo Max luminescence reagent was added to each well and the plate was covered with aluminum foil and incubated at room temperature for 15 min. Finally, the luminescence was recorded using multimode microplate reader. Kinase activity assays were performed in duplicate at each concentration.
The luminescence data were analyzed as follows. The difference between luminescence intensities in the absence of kinase (Lu t) and in the presence of kinase (Lu c) was defined as 100 % […]
calculated as: % activity = {(Lu t - Lu)/(Lut - Luc)} ×100%. The concentration of the test compounds required to reduce the kinase activity by 50% was determined from dose-response curves and […]

DU-145 = assay: NCI 60 single concentration growth inhibition; type: cell-based, human; conditions: DU-145, Prostate cancer; for inhibition at 10 µM: Homo sapiens, read-out: GI%
Experimental: (§1) The synthesized dichlorobenzimidazoles 10a–p were assayed for their influence on divers cancer cell lines according to the method presented in the Additional file A.
(§2) 5. Screening of cytotoxic activity against a panel of sixty human tumor cell lines
(§3) The selected compounds by NCI were evaluated for their anticancer activity in a two-stage process. First, these compounds were screened against the full NCI 60 cell lines panel at a single high dose of 10 µM. Then, the output from the single dose screen is reported as a mean graph. […]
(§4) Assay protocol. The human tumor cell lines of the cancer screening panel are grown in RPMI 1640 medium containing 5% fetal bovine serum and 2 mM L-glutamine. For a typical screening experiment, cells are inoculated into 96 well microtiter plates in 100 µL at plating densities ranging from 5000 to 40,000 cells/well depending on the doubling time of individual cell lines. After cell inoculation, the microtiter plates are incubated at 37 °C, 5% CO 2, 95% air and 100% relative humidity for 24 h prior to addition of the experimental drugs.
(§5) After 24 h, two plates of each cell line are fixed in situ with TCA, to represent a measurement of the cell population for each cell line at the time of drug addition (Tz). The experimental drugs are solubilized in dimethyl sulfoxide at 400-fold the desired final maximum test concentration and stored frozen prior to use. At the time of drug addition, an aliquot of frozen concentrate is thawed and diluted to twice the desired final maximum test concentration with complete medium containing 50 µg/mL gentamicin. Additional four, 10-fold or ½ log serial dilutions are made to provide a total of five drug concentrations plus control.
(§6) Aliquots of […] of these different drug dilutions are added to the appropriate microtiter wells already containing […] of medium, resulting in the required final drug concentrations.
(§7) Following drug addition, the plates are incubated for an additional 48 h at 37 °C, 5% CO 2, 95% air, and 100% relative humidity. For adherent cells, the assay is terminated by the addition of cold TCA.
(§8) Cells are fixed in situ by the gentle addition of 50 µL of cold 50% (w/v) TCA (final concentration, 10% TCA) and incubated for 60 min at 4 °C. The supernatant is discarded, and the plates are washed five times with tap water and air dried. Sulforhodamine B (SRB) solution ([…]) at 0.4% (w/v) in 1% acetic acid is added to each well, and plates are incubated for 10 min at room temperature. After staining, unbound dye is removed by washing five times with 1% acetic acid and the plates are air dried. Bound stain is subsequently solubilized with 10 mM trizma base, and the absorbance is read on an automated plate reader at a wavelength of 515 nm. For suspension cells, the methodology is […]
(§9) the same except that the assay is terminated by fixing settled cells at the bottom of the wells by gently adding 50 µl of 80% TCA (final concentration, 16% TCA). Using the seven absorbance measurements [time zero, (Tz), control growth, (C), and test growth in the presence of drug at the five concentration levels (Ti)], the percentage growth is calculated at each of the drug concentrations […]
(§10) Percentage growth inhibition is calculated as: [(Ti Tz)/(C–Tz)] x 100 for concentrations for which Ti>/=Tz and [(Ti-Tz)/Tz] x 100 for concentrations for which Ti < Tz. […]
(§11) Results for each compound were reported as a mean graph of the percent growth of the treated cells when compared to the untreated control cells. There after obtaining the results for one dose assay, analysis of historical Development Therapeutics Programme (DTP) was performed and compounds which satisfies predetermined threshold inhibition criteria is selected for NCI full panel 5 dose assay.

HCC-2998 = assay: NCI 60 single concentration growth inhibition; type: cell-based, human; conditions: HCC-2998, Colon cancer; for inhibition at 10 µM: Homo sapiens, read-out: GI%
Experimental: as §1, §2, §3, §4, §5, §6, §7, §8, §9, §10, §11

HOP-92 = assay: NCI 60 single concentration growth inhibition; type: cell-based, human; conditions: HOP-92, Non-small cell lung cancer; for inhibition at 10 µM: Homo sapiens, read-out: GI%
Experimental: as §1, §2, §3, §4, §5, §6, §7, §8, §9, §10, §11

HT29 = assay: NCI 60 single concentration growth inhibition; type: cell-based, human; conditions: for inhibition at 10 µM: Homo sapiens, HT-29, HT29, Colon cancer, read-out: GI%
Experimental: as §1, §2, §3, §4, §5, §6, §7, §8, §9, §10, §11

NCI-H522 = assay: NCI 60 single concentration growth inhibition; type: cell-based, human; conditions: NCI-H522, Non-small cell lung cancer; for inhibition at 10 µM: Homo sapiens, read-out: GI%
Experimental: as §1, §2, §3, §4, §5, §6, §7, §8, §9, §10, §11

NCI/ADR-RES = assay: NCI 60 single concentration growth inhibition; type: cell-based, human; conditions: Ovarian cancer; for inhibition at 10 µM: Homo sapiens, read-out: GI%
Experimental: as §1, §2, §3, §4, §5, §6, §7, §8, §9, §10, §11

OVCAR-3 = assay: NCI 60 single concentration growth inhibition; type: cell-based, human; conditions: OVCAR-3, Ovarian cancer; for inhibition at 10 µM: Homo sapiens, read-out: GI%
Experimental: as §1, §2, §3, §4, §5, §6, §7, §8, §9, §10, §11

OVCAR-4 = assay: NCI 60 single concentration growth inhibition; type: cell-based, human; conditions: OVCAR-4, Ovarian cancer; for inhibition at 10 µM: Homo sapiens, read-out: GI%
Experimental: as §1, §2, §3, §4, §5, §6, §7, §8, §9, §10, §11

SNB-19 = assay: NCI 60 single concentration growth inhibition; type: cell-based, human; conditions: SNB-19, CNS cancer; for inhibition at 10 µM: Homo sapiens, read-out: GI%
Experimental: as §1, §2, §3, §4, §5, §6, §7, §8, §9, §10, §11

T1 sequence (P15056 whole entry): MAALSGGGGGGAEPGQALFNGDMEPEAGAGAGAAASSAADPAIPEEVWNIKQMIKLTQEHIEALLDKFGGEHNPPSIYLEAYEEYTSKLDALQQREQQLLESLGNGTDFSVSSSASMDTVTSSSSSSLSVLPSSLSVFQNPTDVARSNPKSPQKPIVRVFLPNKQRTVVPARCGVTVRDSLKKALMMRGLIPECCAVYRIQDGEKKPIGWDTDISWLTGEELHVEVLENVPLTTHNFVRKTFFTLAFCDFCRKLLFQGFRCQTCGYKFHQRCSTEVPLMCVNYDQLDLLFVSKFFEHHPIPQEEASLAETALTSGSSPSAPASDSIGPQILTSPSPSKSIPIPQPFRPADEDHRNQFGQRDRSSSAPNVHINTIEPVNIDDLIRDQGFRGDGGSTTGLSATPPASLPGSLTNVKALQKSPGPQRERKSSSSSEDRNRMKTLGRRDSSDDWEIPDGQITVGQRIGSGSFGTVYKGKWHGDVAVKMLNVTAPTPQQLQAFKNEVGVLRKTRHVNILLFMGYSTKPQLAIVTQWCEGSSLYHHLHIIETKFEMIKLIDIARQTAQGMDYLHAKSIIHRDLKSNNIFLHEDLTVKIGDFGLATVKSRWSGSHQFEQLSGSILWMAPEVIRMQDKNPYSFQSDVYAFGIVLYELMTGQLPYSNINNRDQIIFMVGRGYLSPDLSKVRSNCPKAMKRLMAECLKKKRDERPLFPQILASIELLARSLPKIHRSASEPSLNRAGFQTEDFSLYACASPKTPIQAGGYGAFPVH

Row | Molecule | inhibition at 10 µM (BRAFWT) | inhibition at 10 µM (DU-145) | inhibition at 10 µM (HCC-2998) | inhibition at 10 µM (HOP-92) | inhibition at 10 µM (HT29) | inhibition at 10 µM (NCI-H522) | inhibition at 10 µM (NCI/ADR-RES) | inhibition at 10 µM (OVCAR-3) | inhibition at 10 µM (OVCAR-4) | inhibition at 10 µM (SNB-19) | % inhibition (BRAFWT) | GI% (DU-145; 10 μM) | GI% (HCC-2998; 10 μM) | GI% (HOP-92; 10 μM) | GI% (HT29; HT29, Colon cancer, 10 μM) | GI% (NCI-H522; 10 μM) | GI% (NCI/ADR-RES; 10 μM) | GI% (OVCAR-3; 10 μM) | GI% (OVCAR-4; 10 μM) | GI% (SNB-19; 10 μM)
1 | COc1ccc(-c2nc3cc(Cl)c(Cl)cc3n2CC(=O)NN=Cc2ccc(O)c(OC)c2)cc1 [Compound 10l, 2-(5,6-Dichloro-2-(4-methoxyphenyl)-1H-benzo[d]imidazol-1-yl)-N'-(4-hydroxy-3-methoxybenzylidene)acetohydrazide] | 52.3 ± 4.92% | 31.8% | 18.2% | 40.1% | 13% | 23.5% | 38.4% | 28.7% | 52.9% | 37.3% |  |  |  |  |  |  |  |  |  | 
2 | COc1ccc(-c2nc3cc(Cl)c(Cl)cc3n2CC(=O)NN=Cc2cccc(OC)c2)cc1 [Compound 10c, 2-(5,6-Dichloro-2-(4-methoxyphenyl)-1H-benzo[d]imidazol-1-yl)-N'-(3-methoxybenzylidene)acetohydrazide] | 53.85 ± 0.001% | 23.3% | 7.72% | 20.6% | 5.29% | 15.1% | 21.3% | 14.4% | 42.1% | 32.4% |  |  |  |  |  |  |  |  |  | 
3 | COc1ccc(-c2nc3cc(Cl)c(Cl)cc3n2CC(=O)NN=Cc2ccc(OC)c(O)c2)cc1 [Compound 10k, 2-(5,6-Dichloro-2-(4-methoxyphenyl)-1H-benzo[d]imidazol-1-yl)-N'-(3-hydroxy-4-methoxybenzylidene)acetohydrazide] | 47.6 ± 3.8% | 26.4% | 32.2% | 12% | 30.2% | 37.8% | 40.1% | 23.3% | 47.3% | 40.3% |  |  |  |  |  |  |  |  |  | 
4 | COC(=O)COc1ccc(C=NNC(=O)Cn2c(-c3ccc(OC)cc3)nc3cc(Cl)c(Cl)cc32)cc1OC [Compound 10p, Methyl-2-(4-((2-(2-(5,6-dichloro-2-(4-methoxyphenyl)-1H-benzo[d]imidazol-1-yl)acetyl)hydrazono)methyl)-2-methoxyphenoxy)acetate] | 90.5 ± 8.9% | 143% | 86.1% | < 5% | 116% | 6.3% | 5.42% | < 5% | < 5% | < 5% |  |  |  |  |  |  |  |  |  | 
5 | COC(=O)COc1cc(C=NNC(=O)Cn2c(-c3ccc(OC)cc3)nc3cc(Cl)c(Cl)cc32)ccc1OC [Compound 10o, Methyl-2-(5-((2-(2-(5,6-dichloro-2-(4-methoxyphenyl)-1H-benzo[d]imidazol-1-yl)acetyl)hydrazono)methyl)-2-methoxyphenoxy)acetate] | 34.3 ± 3.31% | 155% | 83.8% | 29.1% | 90.3% | 32.7% | 11.1% | < 5% | 18% | < 5% |  |  |  |  |  |  |  |  |  | 
6 | COc1ccc(C=NNC(=O)Cn2c(-c3ccc(OC)cc3)nc3cc(Cl)c(Cl)cc32)cc1 [Compound 10d, 2-(5,6-Dichloro-2-(4-methoxyphenyl)-1H-benzo[d]imidazol-1-yl)-N'-(4-methoxybenzylidene)acetohydrazide] | 52.7 ± 0.87% | 41.2% | 34.9% | 10.9% | 37.5% | 27.9% | 36% | 22.7% | 65% | 50.5% |  |  |  |  |  |  |  |  |  | 
7 | 2-(4-((2-(2-(5,6-Dichloro-2-(4-methoxyphenyl)-1H-benzo[d]imidazol-1-yl)acetyl)hydrazono)methyl) -2-methoxyphenoxy)acetic acid [Compound 10m] |  |  |  |  |  |  |  |  |  |  | 77.25 ± 1.06% | – (GI% < 5%) | – (GI% < 5%) | – (GI% < 5%) | – (GI% < 5%) | 6.07% | – (GI% < 5%) | – (GI% < 5%) | – (GI% < 5%) | – (GI% < 5%)
8 | COC(=O)COc1cccc(C=NNC(=O)Cn2c(-c3ccc(OC)cc3)nc3cc(Cl)c(Cl)cc32)c1 [Compound 10g, Methyl-2-(3-((2-(2-(5,6-dichloro-2-(4-methoxyphenyl)-1H-benzo[d]imidazol-1-yl)acetyl)hydrazono)methyl)phenoxy)acetate] | 39.9 ± 2.49% | 110% | 44% | 5.5% | 51.7% | 9.11% | < 5% | < 5% | < 5% | < 5% |  |  |  |  |  |  |  |  |  | 
